Target: T1, ^FIREmate and ^FIREtag (TOM20-ECFP-^FIREmate / mCherry-^FIREtag) (Halorhodospira halophila, UniProt P16113, A30V/C69G/D97P/F96I, form not given/G21E/G25R/K17N/M100R/M109L/Q41L/Q99S/S72T/T101G/V83A/Y94W/Y98T)
T1 construct: TOM20(1-34)-ECFP-FIREmate and mCherry-FIREtag in HeLa or U2OS cells
T1 sequence (P16113 1-114 A30V/C69G/D97P/F96I/G21E/G25R/K17N/M100R/M109L/Q41L/Q99S/S72T/T101G/V83A/Y94W/Y98T): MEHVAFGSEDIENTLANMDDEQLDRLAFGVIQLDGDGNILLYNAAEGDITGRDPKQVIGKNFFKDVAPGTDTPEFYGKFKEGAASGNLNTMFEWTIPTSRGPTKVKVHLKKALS
Assay: Recruitment of cytoplasmic mCherry-^FIREtag to mitochondria (TOM20-ECFP-^FIREmate), time-lapse confocal microscopy, HeLa cells
Format: cell-based
Conditions: 10 μM
Protocol: FIGS. 3A-E illustrate the recruitment of cytoplasmic proteins to mitochondria with the proximity inducing system described herein. FIG. 3A is a schematic representation of the experimental design wherein HeLa cells co-expressing mCherry-^FIREtag and Tom20-ECFP-^FIREmate were treated with 10 μM of match (either HBR-2,5DM or HMBR), and imaged by time-lapse confocal microscopy. FIGS. 3B-C are graphs showing the temporal evolution of the FIRE signal detected upon addition at 0 min of HBR-2,5DM (match1-3B) or HMBR (match2-3C). Data represents the mean values±SD of 20 cells from n=3 independent experiments (3B, D), or of 10 cells from n=3 independent experiments (3C, E). FIGS. 3D-E are sets of representative confocal micrographs of cells before (0 min) and after (5 min) addition of HBR-2,5DM (match1-3D) or HMBR (match2-3E) (mCherry: ex/em 561/606-675 nm; FIRE: ex/em 488/508-570 nm; ECFP: ex/em 445/455-499 nm). […] Scale bars are 20 μm.
FIGS. 4A-D illustrate the recruitment over time of cytoplasmic proteins to mitochondria with the proximity inducing system described herein. (4A, C) HeLa cells co-expressing mCherry-^FIREtag and Tom20-ECFP-^FIREmate were treated with 10 μM HBR-2,5DM and imaged by time-lapse confocal microscopy at 1 image per 5 seconds. […] FIG. 4C is a graph showing the temporal evolution of the FIRE signal detected in HeLa cells upon addition of HBR-2,5DM at 0 sec. […] FIG. 4D is a graph showing the temporal evolution of the FIRE signal detected in U2OS cells upon addition of HBR-2,5DM at 0 min. […]
The confocal micrographs were acquired on a Zeiss LSM 980 Laser Scanning Microscope equipped with a plan apochromat 63x/1.4 NA oil immersion objective. […] The images were analyzed using Icy (2.4.0.0) and Fiji (Image J). In short, to track fluorescence signal in a specific organelle, a ROI (region of interest) was determined by masking the signal in the ECFP (Enhanced Cyan Fluorescent Protein) channel with the plug-in HK-means with the following parameters: intensity class equals 100, minimum object size (pixels or px) equals 500, maximum object size (px) equals 1500-3000. […]

## Cc1cc(/C=C2\SC(=S)NC2=O)c(C)cc1O [HBR-2,5DM, (Z)-5-(4-hydroxy-2,5-dimethylbenzylidene)-2-thioxo-1,3-thiazolidin-4-one]
1 image per 5 seconds
  half-time of formation of the ternary fluorescent assembly: about 20 seconds
5 min
  translocation of mCherry-^FIREtag from cytosol to mitochondria: very rapid translocation of the mCherry-^FIREtag fusion protein from the cytosol to mitochondria
ex/em 488/508-570 nm
  FIRE signal (fluorescence) at the mitochondria: simultaneous appearance of a strong green fluorescent signal
